{"source": "ChEMBL document CHEMBL2311537", "about": "“Antiviral activity of (+)-sattabacin against varicella zoster” (Bioorg Med Chem Lett, 2013)", "key": {"MRC5 [1]": {"tested_on": "MRC5", "test": "Effect on EIF2B1 gene expression in human MRC5 cells infected with Varicella zoster virus Ellen at 100 uM after 24 hrs by DNA microarray analysis", "type": "functional"}, "MRC5 [2]": {"tested_on": "MRC5", "test": "Effect on CACNB4 gene expression in human MRC5 cells infected with Varicella zoster virus Ellen at 100 uM after 24 hrs by DNA microarray analysis", "type": "functional"}, "MRC5 [3]": {"tested_on": "MRC5", "test": "Effect on RNF43 gene expression in human MRC5 cells infected with Varicella zoster virus Ellen at 100 uM after 24 hrs by DNA microarray analysis", "type": "functional"}, "MRC5 [4]": {"tested_on": "MRC5", "test": "Effect on KRT5 gene expression in human MRC5 cells infected with Varicella zoster virus Ellen at 100 uM after 24 hrs by DNA microarray analysis", "type": "functional"}, "MRC5 [5]": {"tested_on": "MRC5", "test": "Effect on ACVR1 gene expression in human MRC5 cells infected with Varicella zoster virus Ellen at 100 uM after 24 hrs by DNA microarray analysis", "type": "functional"}, "Human alphaherpesvirus 3": {"tested_on": "Human alphaherpesvirus 3", "test": "Antiviral activity against Varicella zoster virus Ellen infected in human MRC5 cells assessed as inhibition of viral replication by viral reduction plaque assay", "type": "functional, organism-based", "details": "Human alphaherpesvirus 3, Ellen"}, "MRC5 [6]": {"tested_on": "MRC5", "test": "Effect on ZMYND15 gene expression in human MRC5 cells infected with Varicella zoster virus Ellen at 100 uM after 24 hrs by DNA microarray analysis", "type": "functional"}, "MRC5 [7]": {"tested_on": "MRC5", "test": "Effect on SAP18 gene expression in human MRC5 cells infected with Varicella zoster virus Ellen at 100 uM after 24 hrs by DNA microarray analysis", "type": "functional"}, "MRC5 [8]": {"tested_on": "MRC5", "test": "Effect on DDX27 gene expression in human MRC5 cells infected with Varicella zoster virus Ellen at 100 uM after 24 hrs by DNA microarray analysis", "type": "functional"}, "MRC5 [9]": {"tested_on": "MRC5", "test": "Effect on CXCL1 gene expression in human MRC5 cells infected with Varicella zoster virus Ellen at 100 uM after 24 hrs by DNA microarray analysis", "type": "functional"}, "MRC5 [10]": {"tested_on": "MRC5", "test": "Effect on ACTA1 gene expression in human MRC5 cells infected with Varicella zoster virus Ellen at 100 uM after 24 hrs by DNA microarray analysis", "type": "functional"}, "MRC5 [11]": {"tested_on": "MRC5", "test": "Cytotoxicity against human MRC5 cells assessed as inhibition of cell viability at >1000 uM after 24 hrs by MTT assay", "type": "cell-based", "details": "mrc5, 24 h"}, "MRC5 [12]": {"tested_on": "MRC5", "test": "Effect on SNRPB gene expression in human MRC5 cells infected with Varicella zoster virus Ellen at 100 uM after 24 hrs by DNA microarray analysis", "type": "functional"}, "MRC5 [13]": {"tested_on": "MRC5", "test": "Effect on TPM2 gene expression in human MRC5 cells infected with Varicella zoster virus Ellen at 100 uM after 24 hrs by DNA microarray analysis", "type": "functional"}, "MRC5 [14]": {"tested_on": "MRC5", "test": "Effect on CDC27 gene expression in human MRC5 cells infected with Varicella zoster virus Ellen at 100 uM after 24 hrs by DNA microarray analysis", "type": "functional"}, "MRC5 [15]": {"tested_on": "MRC5", "test": "Effect on PSME1 gene expression in human MRC5 cells infected with Varicella zoster virus Ellen at 100 uM after 24 hrs by DNA microarray analysis", "type": "functional"}, "MRC5 [16]": {"tested_on": "MRC5", "test": "Effect on ADCY8 gene expression in human MRC5 cells infected with Varicella zoster virus Ellen at 100 uM after 24 hrs by DNA microarray analysis", "type": "functional"}, "MRC5 [17]": {"tested_on": "MRC5", "test": "Effect on SLC20A2 gene expression in human MRC5 cells infected with Varicella zoster virus Ellen at 100 uM after 24 hrs by DNA microarray analysis", "type": "functional"}, "MRC5 [18]": {"tested_on": "MRC5", "test": "Effect on KCNS3 gene expression in human MRC5 cells infected with Varicella zoster virus Ellen at 100 uM after 24 hrs by DNA microarray analysis", "type": "functional"}, "MRC5 [19]": {"tested_on": "MRC5", "test": "Effect on RPL37A gene expression in human MRC5 cells infected with Varicella zoster virus Ellen at 100 uM after 24 hrs by DNA microarray analysis", "type": "functional"}, "MRC5 [20]": {"tested_on": "MRC5", "test": "Effect on MT1M gene expression in human MRC5 cells infected with Varicella zoster virus Ellen at 100 uM after 24 hrs by DNA microarray analysis", "type": "functional"}, "[21]": {"test": "Cytotoxicity against human MRC5 cells assessed as inhibition of cell viability after 24 hrs by MTT assay", "type": "cell-based"}, "[22]": {"test": "Antiviral coefficient, ratio of CC50 for human MRC5 cells to IC50 for Varicella zoster virus Ellen infected in human MRC5 cells", "type": "functional"}, "MRC5 [23]": {"tested_on": "MRC5", "test": "Effect on MRPS18B gene expression in human MRC5 cells infected with Varicella zoster virus Ellen at 100 uM after 24 hrs by DNA microarray analysis", "type": "functional"}, "[24]": {"test": "Antiviral coefficient, ratio of CC90 for human MRC5 cells to IC90 for Varicella zoster virus Ellen infected in human MRC5 cells", "type": "functional"}}, "note": "pIC50: −log10 of the molar value.", "data": [{"smiles": "CC(C)CC(=O)[C@@H](O)Cc1ccccc1", "values": [{"measurement": "fold change (FC)", "setting": "MRC5 [1]", "result": -1.402}, {"measurement": "fold change (FC)", "setting": "MRC5 [2]", "result": 0.741}, {"measurement": "fold change (FC)", "setting": "MRC5 [3]", "result": -1.092}, {"measurement": "fold change (FC)", "setting": "MRC5 [4]", "result": 0.566}, {"measurement": "fold change (FC)", "setting": "MRC5 [5]", "result": -1.105}, {"measurement": "pIC50", "setting": "Human alphaherpesvirus 3", "result": 4.24}, {"measurement": "IC90", "setting": "Human alphaherpesvirus 3", "result": 109, "unit": "µM"}, {"measurement": "fold change (FC)", "setting": "MRC5 [6]", "result": 0.577}, {"measurement": "fold change (FC)", "setting": "MRC5 [7]", "result": -1.128}, {"measurement": "fold change (FC)", "setting": "MRC5 [8]", "result": 0.642}, {"measurement": "fold change (FC)", "setting": "MRC5 [9]", "result": 0.544}, {"measurement": "fold change (FC)", "setting": "MRC5 [10]", "result": 0.545}, {"measurement": "Activity", "setting": "MRC5 [11]", "result": "Toxic"}, {"measurement": "fold change (FC)", "setting": "MRC5 [12]", "result": -1.193}, {"measurement": "fold change (FC)", "setting": "MRC5 [13]", "result": -1.336}, {"measurement": "fold change (FC)", "setting": "MRC5 [14]", "result": 0.823}, {"measurement": "fold change (FC)", "setting": "MRC5 [15]", "result": 0.576}, {"measurement": "fold change (FC)", "setting": "MRC5 [16]", "result": -1.328}, {"measurement": "fold change (FC)", "setting": "MRC5 [17]", "result": 0.675}, {"measurement": "fold change (FC)", "setting": "MRC5 [18]", "result": 0.673}, {"measurement": "fold change (FC)", "setting": "MRC5 [19]", "result": -1.282}, {"measurement": "fold change (FC)", "setting": "MRC5 [20]", "result": -1.153}, {"measurement": "CC50 at 24 h", "setting": "[21]", "result": 765, "unit": "µM"}, {"measurement": "CC90 at 24 h", "setting": "[21]", "result": 3880, "unit": "µM"}, {"measurement": "Ratio CC50/IC50", "setting": "[22]", "result": 13.2}, {"measurement": "fold change (FC)", "setting": "MRC5 [23]", "result": -1.168}, {"measurement": "Ratio", "setting": "[24]", "result": 35.6}]}, {"smiles": "Nc1nc2c(ncn2COCCO)c(=O)[nH]1", "note": "[ACYCLOVIR]", "values": [{"measurement": "pIC50", "setting": "Human alphaherpesvirus 3", "result": 4.89}]}, {"smiles": "Nc1nc(O)c2ncn(CCC(CO)CO)c2n1", "note": "[PENCICLOVIR]", "values": [{"measurement": "pIC50", "setting": "Human alphaherpesvirus 3", "result": 4.80}]}]}
